Measurements taken from patent US20060045953A1 (priority 2004, published 2006).
pEC50: −log10 of the molar value. Like-named read-outs stand apart in the source and are kept apart here.

Molecular target: T1, hT1R1/hT1R3 umami receptor (Homo sapiens, UniProt Q7RTX0+Q7RTX1)
T1 construct: expressed in transfected cells; host or cells: HEK293 derivative stably expressing Gα15, clone I-17, expression induced with mifepristone
T1 sequence (Q7RTX1 21-841): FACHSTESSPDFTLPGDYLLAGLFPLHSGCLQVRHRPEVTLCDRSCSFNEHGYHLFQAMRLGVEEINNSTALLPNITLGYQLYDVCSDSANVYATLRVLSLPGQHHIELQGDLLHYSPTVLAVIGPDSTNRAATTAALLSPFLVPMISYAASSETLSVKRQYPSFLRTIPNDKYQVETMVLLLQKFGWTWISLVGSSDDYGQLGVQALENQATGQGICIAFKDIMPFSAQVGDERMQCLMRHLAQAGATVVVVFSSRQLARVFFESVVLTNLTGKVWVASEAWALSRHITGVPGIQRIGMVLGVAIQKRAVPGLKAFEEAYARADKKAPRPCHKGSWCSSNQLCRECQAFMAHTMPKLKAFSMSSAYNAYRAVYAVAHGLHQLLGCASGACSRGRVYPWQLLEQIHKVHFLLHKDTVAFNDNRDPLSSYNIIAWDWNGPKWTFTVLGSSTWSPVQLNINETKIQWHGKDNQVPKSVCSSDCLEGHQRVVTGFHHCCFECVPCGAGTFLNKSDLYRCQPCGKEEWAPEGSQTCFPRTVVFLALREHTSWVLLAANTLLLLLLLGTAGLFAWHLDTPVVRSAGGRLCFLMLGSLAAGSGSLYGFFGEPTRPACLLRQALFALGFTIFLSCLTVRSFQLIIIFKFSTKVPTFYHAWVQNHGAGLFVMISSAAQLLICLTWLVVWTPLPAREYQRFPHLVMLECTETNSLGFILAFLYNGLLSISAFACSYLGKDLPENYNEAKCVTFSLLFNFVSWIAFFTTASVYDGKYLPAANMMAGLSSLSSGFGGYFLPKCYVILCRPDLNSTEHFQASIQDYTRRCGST
T1 sequence (Q7RTX0 21-852): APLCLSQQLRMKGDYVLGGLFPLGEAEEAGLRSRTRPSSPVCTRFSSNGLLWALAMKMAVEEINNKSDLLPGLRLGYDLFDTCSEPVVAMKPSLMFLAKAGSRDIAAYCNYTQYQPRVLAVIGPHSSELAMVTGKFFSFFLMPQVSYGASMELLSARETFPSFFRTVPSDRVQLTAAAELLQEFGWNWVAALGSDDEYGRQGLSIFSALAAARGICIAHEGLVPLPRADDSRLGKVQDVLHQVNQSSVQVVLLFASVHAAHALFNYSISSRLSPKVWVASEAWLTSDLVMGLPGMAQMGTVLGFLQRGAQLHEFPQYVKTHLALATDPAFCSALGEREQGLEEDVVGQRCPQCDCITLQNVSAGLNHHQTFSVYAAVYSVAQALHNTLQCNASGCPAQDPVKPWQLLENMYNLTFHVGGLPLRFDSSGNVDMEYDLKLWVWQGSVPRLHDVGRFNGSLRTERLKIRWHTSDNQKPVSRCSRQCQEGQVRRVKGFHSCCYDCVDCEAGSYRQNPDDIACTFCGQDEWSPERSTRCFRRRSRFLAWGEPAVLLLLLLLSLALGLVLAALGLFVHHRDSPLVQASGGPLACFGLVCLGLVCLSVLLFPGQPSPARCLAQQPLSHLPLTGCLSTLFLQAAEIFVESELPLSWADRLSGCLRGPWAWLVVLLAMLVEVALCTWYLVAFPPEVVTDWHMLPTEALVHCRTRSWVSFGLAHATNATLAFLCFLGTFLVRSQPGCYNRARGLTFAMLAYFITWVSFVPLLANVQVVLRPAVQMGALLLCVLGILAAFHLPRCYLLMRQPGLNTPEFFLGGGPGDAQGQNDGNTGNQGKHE
Assay: In vitro hT1R1/hT1R3 umami taste receptor activation assay (FLIPR, dose response)
Format: cell-based
Details: read-out: Umami EC50

| pEC50 (Table C, Umami Ureas) | pEC50 (Table D, Umami Acrylamides) | Compound |
| --- | --- | --- |
| – | 6.54 | COc1ccc(/C=C/C(=O)NC(C(C)C)C(C)C)cc1 [Example D1, (E)-N-(2,4-dimethylpentan-3-yl)-3-(4-methoxyphenyl)acrylamide] |
| – | 6.49 | COC(=O)[C@@H](CC(C)C)NC(=O)/C=C/c1ccc(OC)cc1 [Example D2, (R,E)-methyl 2-(3-(4-methoxyphenyl)acrylamido)-4-methylpentanoate] |
| – | 6.20 | CCCCC(NC(=O)/C=C/c1ccc(OC)cc1)C(=O)OC (stereo not drawn) [Example D3, (E)-methyl 2-(3-(4-methoxyphenyl)acrylamido)hexanoate] |
| – | 6.16 | CC(CCc1ccccc1)NC(=O)/C=C/c1cccs1 (stereo not drawn) [Example D4, N-(1-Methyl-3-phenyl-propyl)-3-thiophen-2-yl-acrylamide] |
| – | 6.14 | CCCC(CCC)NC(=O)/C=C/c1ccc(OC)cc1 [Example D5, (E)-N-(heptan-4-yl)-3-(4-methoxyphenyl)acrylamide] |
| – | 6.12 | CCCC(CCC)NC(=O)/C=C/c1cccs1 [Example D6, N-(1-Propyl-butyl)-3-thiophen-2-yl-acrylamide] |
| – | 6.09 | CCC(CC)NC(=O)/C=C/c1ccc(OC)cc1 [Example D7, (E)-3-(4-methoxyphenyl)-N-(pentan-3-yl)acrylamide] |
| – | 6.03 | CCOc1ccc(/C=C/C(=O)N[C@@H](COC)CC(C)C)cc1 [Example D8, (R,E)-3-(4-ethoxyphenyl)-N-(1-methoxy-4-methylpentan-2-yl)acrylamide] |
| – | 6.01 | CCC/C=C\C(=O)NC(CCC)CCC [Example D9, (Z)-N-(heptan-4-yl)hex-2-enamide] |
| – | 5.96 | COC(=O)[C@@H](CC(C)C)NC(=O)/C=C/c1ccsc1 [Example D10, (R,E)-methyl 4-methyl-2-(3-(thiophen-3-yl)acrylamido)pentanoate] |
| – | 5.93 | COC(=O)[C@@H](CC(C)C)NC(=O)/C=C/c1ccccc1 [Example D11, (R)-methyl 2-cinnamamido-4-methylpentanoate] |
| – | 5.89 | CC(C)/C=C/C(=O)NC1CCCCC1C (stereo not drawn) [Example D12, (E)-4-methyl-N-(2-methylcyclohexyl)pent-2-enamide] |
| – | 5.88 | CCOc1ccc(/C=C/C(=O)NC(C)CC)cc1 (stereo not drawn) [Example D13, (E)-N-sec-butyl-3-(4-ethoxyphenyl)acrylamide] |
| – | 5.84 | CCC(COC)NC(=O)/C=C/c1ccc(OC)cc1 (stereo not drawn) [Example D14, (E)-N-(1-methoxybutan-2-yl)-3-(4-methoxyphenyl)acrylamide] |
| – | 5.81 | CCCC(CCC)NC(=O)/C=C/c1ccsc1 [Example D15, (E)-N-(heptan-4-yl)-3-(thiophen-3-yl)acrylamide] |

Further lines, the molecule ahead of its results:

| Compound | pEC50 (Table C, Umami Ureas) | pEC50 (Table D, Umami Acrylamides) |
| --- | --- | --- |
| CCCC(CCC)NC(=O)Nc1ccccc1Cl [Example C1, 1-(2-chlorophenyl)-3-(heptan-4-yl)urea] | 6.43 | – |
| CCC(NC(=O)Nc1ccc(Cl)cc1Cl)c1ccccc1 (stereo not drawn) [Example C2, 1-(2,4-dichlorophenyl)-3-(1-phenylpropyl)urea] | 6.31 | – |
| CC1CCCCC1NC(=O)Nc1ccccc1Cl (stereo not drawn) [Example C3, 1-(2-chlorophenyl)-3-(2-methylcyclohexyl)urea] | 6.28 | – |
| CCCC(CCC)NC(=O)Nc1ccccc1F [Example C4, 1-(2-fluorophenyl)-3-(heptan-4-yl)urea] | 6.10 | – |
| CC(NC(=O)Nc1ccccc1Cl)C1CCCCC1 (stereo not drawn) [Example C5, 1-(2-chlorophenyl)-3-(1-cyclohexylethyl)urea] | 6.08 | – |
| CC(C)c1ccc(NC(=O)NCCc2ccccn2)cc1 [Example C6, 1-(4-isopropylphenyl)-3-(2-(pyridin-2-yl)ethyl)urea] | 6.01 | – |
| O=C(Nc1ccccc1Cl)NC1CCCc2ccccc21 (stereo not drawn) [Example C7, 1-(2-chlorophenyl)-3-(1,2,3,4-tetrahydronaphthalen-1-yl)urea] | 6.00 | – |
| COc1ccc(NC(=O)NC2CCCCC2C)c(OC)c1 (stereo not drawn) [Example C8, 1-(2,4-dimethoxyphenyl)-3-(2-methylcyclohexyl)urea] | 5.85 | – |
| CCCC(CCC)NC(=O)Nc1ccccc1CC [Example C9, 1-(2-ethylphenyl)-3-(heptan-4-yl)urea] | 5.85 | – |
| CCOc1ccc(NC(=O)NC2CCCCC2C)cc1 (stereo not drawn) [Example C10, 1-(4-ethoxyphenyl)-3-(2-methylcyclohexyl)urea] | 5.82 | – |
| O=C(Nc1ccccc1F)NC1CCCc2ccccc21 (stereo not drawn) [Example C11, 1-(2-fluorophenyl)-3-(1,2,3,4-tetrahydronaphthalen-1-yl)urea] | 5.78 | – |
| COc1ccccc1NC(=O)NC1CCCCC1C (stereo not drawn) [Example C12, 1-(2-methoxyphenyl)-3-(2-methylcyclohexyl)urea] | 5.78 | – |
| CCC(CC)NC(=O)Nc1ccc(OC)cc1OC [Example C13, 1-(2,4-dimethoxyphenyl)-3-(pentan-3-yl)urea] | 5.76 | – |
| CSc1ccccc1NC(=O)NC(C(C)C)C(C)C [Example C14, 1-(2,4-dimethylpentan-3-yl)-3-(2-(methylthio)phenyl)urea] | 6.85 | – |
| CCCC(CCC)NC(=O)Nc1ccc(C)cc1OC [Example C15, 1-(heptan-4-yl)-3-(2-methoxy-4-methylphenyl)urea] | 6.80 | – |
| COc1cc(C)ccc1NC(=O)NC(C(C)C)C(C)C [Example C16, 1-(2,4-dimethylpentan-3-yl)-3-(2-methoxy-4-methylphenyl)urea] | 6.68 | – |
| COc1ccccc1NC(=O)NC(C(C)C)C(C)C [Example C17, 1-(2,4-dimethylpentan-3-yl)-3-(2-methoxyphenyl)urea] | 6.62 | – |
| CCCC(CCC)NC(=O)Nc1ccccc1SC [Example C18, 1-(heptan-4-yl)-3-(2-(methylthio)phenyl)urea] | 6.59 | – |
| CC(C)C(NC(=O)Nc1ccc2c(c1)OCO2)C(C)C [Example C19, 1-(benzo[d][1,3]dioxol-5-yl)-3-(2,4-dimethylpentan-3-yl)urea] | 6.49 | – |
| CCCC(CCC)NC(=O)Nc1ccc(C)cc1Cl [Example C20, 1-(2-chloro-4-methylphenyl)-3-(heptan-4-yl)urea] | 7.05 | – |
| CCCC(CCC)NC(=O)Nc1ccc(OC)cc1Cl [Example C21, 1-(2-chloro-4-methoxyphenyl)-3-(heptan-4-yl)urea] | 6.96 | – |
| CCCC(CCC)NC(=O)Nc1ccc(Cl)cc1Cl [Example C22, 1-(2,4-dichlorophenyl)-3-(heptan-4-yl)urea] | 6.74 | – |
| Cc1ccc(NC(=O)N[C@@H](C)C(C)C)c(Cl)c1 [Example C23, (S)-1-(2-chloro-4-methylphenyl)-3-(3-methylbutan-2-yl)urea] | 6.42 | – |
| CCC(NC(=O)Nc1ccc(C)cc1Cl)c1ccccc1 (stereo not drawn) [Example C24, 1-(2-chloro-4-methylphenyl)-3-(1-phenylpropyl)urea] | 6.32 | – |
| CCC(CC(C)C)NC(=O)Nc1ccc2c(c1)OCO2 (stereo not drawn) [Example C25, 1-(benzo[d][1,3]dioxol-5-yl)-3-(5-methylhexan-3-yl)urea] | 6.32 | – |
| CCCC(CCC)NC(=O)Nc1ccccc1OC [Example C26, 1-(heptan-4-yl)-3-(2-methoxyphenyl)urea] | 6.31 | – |
| CCCC(CCC)NC(=O)Nc1ccc2c(c1)OCO2 [Example C27, 1-(benzo[d][1,3]dioxol-5-yl)-3-(heptan-4-yl)urea] | 6.27 | – |
| CCCC(NC(=O)Nc1ccc2c(c1)OCO2)C(C)C (stereo not drawn) [Example C28, 1-(benzo[d][1,3]dioxol-5-yl)-3-(2-methylhexan-3-yl)urea] | 6.24 | – |
| CCCC(CCC)NC(=O)Nc1ccc(C)cc1C [Example C29, 1-(2,4-dimethylphenyl)-3-(heptan-4-yl)urea] | 6.10 | – |
| C=Cc1ccccc1NC(=O)NC(CCC)CCC [Example C30, 1-(heptan-4-yl)-3-(2-vinylphenyl)urea] | 6.10 | – |
